Columns and labels:
[1] = target: T1, NLPPya (Pythium aphanidermatum, UniProt Q9SPD4); assay: Infiltration of NLPs into tobacco leaves in the presence of compounds (inhibition of necrosis); type: in vivo; settings: compound at the final 1 mM concentration; NLPPya 250 nM; tobacco leaves (Figure 5)
Procedure: NLP proteins: NLPPya from the oomycete, Pythium aphanidermatum, was prepared in recombinant form by the use of heterologous expression system for protein production in Escherichia coli. NLPPp from oomycete Phytophthora parasitica was prepared in yeast Pichia pastoris. Proteins were purified with chromatographic procedures and stored in water solutions at -20 °C.
We have injected 50 µL of solution.

[2] = target: T1, NLPPya; assay: Interactions of compounds with NLP proteins determined by surface plasmon resonance (NLPPya); type: binding; settings: Biacore T100, CM5 chip, Steady State Affinity model; 50 mM MES, 140 mM NaCl, 5 % DMSO, pH 5,8; 25 °C; n=number of titrations
[3] = target: T2, NLPPp (Phytophthora nicotianae, UniProt Q9AT28); assay: Interactions of compounds with NLP proteins determined by surface plasmon resonance (NLPPp); type: binding, Phytophthora parasitica; settings: Biacore T100, CM5 chip, Steady State Affinity model; 50 mM MES, 140 mM NaCl, 5 % DMSO, pH 5,8; 25 °C; n=number of titrations
T2 construct: made in house; host or cells: Pichia pastoris
T2 sequence (Q9AT28 20-237): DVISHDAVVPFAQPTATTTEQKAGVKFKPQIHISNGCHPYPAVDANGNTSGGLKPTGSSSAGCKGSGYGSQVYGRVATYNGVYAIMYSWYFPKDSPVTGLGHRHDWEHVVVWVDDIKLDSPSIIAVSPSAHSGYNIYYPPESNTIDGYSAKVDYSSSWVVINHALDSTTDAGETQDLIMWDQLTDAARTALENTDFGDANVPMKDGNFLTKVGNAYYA

T1 sequence (Q9SPD4 18-234 limits assumed): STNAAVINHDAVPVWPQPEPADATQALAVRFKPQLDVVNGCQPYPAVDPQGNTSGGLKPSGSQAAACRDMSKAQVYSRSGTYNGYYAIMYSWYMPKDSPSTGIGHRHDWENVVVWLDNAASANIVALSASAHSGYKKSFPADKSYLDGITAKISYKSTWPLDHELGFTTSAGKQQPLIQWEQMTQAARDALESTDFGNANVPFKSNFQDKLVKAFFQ

Compound	necrosis after infiltration of NLP proteins in the presence of compound [1]	Kd [2] [µM]	Kd [3] [µM]
Cc1ccc2occ(C3NC(C(=O)O)CS3)c(=O)c2c1 (stereo not drawn) [Compound I, 2-(6-methyl-4-oxochromen-3-yl)-1,3-thiazolidin-3-ium-4-carboxylate]	Necrosis was not visible	–	–
Cc1ccc(Nc2ccccc2C(=O)O)cc1 [IIb, 2-[(4-methylphenyl)amino]benzoic acid]	–	98	83.2
Cc1ccc(C)c(Nc2c(C(=O)O)cc([N+](=O)[O-])cc2[N+](=O)[O-])c1 [IId, 2-[(2,5-dimethylphenyl)amino]-3,5-dinitrobenzoic acid]	–	–	39.7
COc1ccc(Nc2ccccc2C(=O)O)cc1 [Compound IIa, 2-[(4-methoxyphenyl)amino]benzoic acid]	Necrosis was not visible	131	71.9
O=C(O)c1ccccc1Nc1cccc(F)c1 [IIc, N-(3-Fluorophenyl)anthranilic acid]	–	77.3	62.4

Reference: patent EP3315028B1, “USE OF INHIBITORS OF NLP PROTEINS AS PHYTOPHARMACEUTICALS FOR PLANT PATHOGEN CONTROL” (Kemijski Institut, priority 2016, dated 2018)
